According to US6555529B1, “Remedies for intramedullary diseases” (Toray Industries, Inc., priority 1997, dated 2003):
Marks after values point to notes of the source that are not given here.

Key:
[1] = system: osteomyelitis accompanying adjuvant arthritis (neutrophil infiltration into joints); test: Suppression of osteomyelitis accompanying rat adjuvant arthritis; format: in vivo; conditions: for Osteomyelitis score for the intertarsal and tarsometatarsal joints / Osteomyelitis score for the talocrural joint region: Lewis rats, scored day 22, grades 0-3, mean ± SE; for osteomyelitis suppressing effect (in words): rat adjuvant arthritis, summary of Table 1
Procedure: 0.1 mg of inactivated dried Mycobacterium butyricum was suspended in 0.1 ml of liquid paraffin, and this was injected into the left hind foot pad of 8-week old female Lewis rats. […] As a control group, the subcutaneous administration of sterile distilled water was carried out. One day after the completion of the administration (day 22) the rats were sacrificed, the skin and muscle removed from the right hind limb and, following decalcification, pathological specimens were prepared. […] Furthermore, Diclofenac (Compound 4) and Indomethacin (Compound 5) were used as existing anti-inflammatory drugs. The results obtained are shown in Table 1 as mean values±standard errors. Using the […] multiple comparison method (parametric), the results were assigned the symbol * when significant at a level of significance of p<0.05, and the symbol ** when significant at a level of significance of p<0.01, compared to the control group in which only sterile distilled water was used.

[2] = system: chronic myelocytic leukaemia cell strain K562; test: Suppression of K562 cell proliferation (MTT assay); format: cell-based; set-up: unit of the concentration uncertain; conditions: 120 hours culture, mean ± SE
Procedure: (§1) Acute promyelocytic leukaemia cell strain KG-1, T-cell type acute lymphoblastic leukaemia cell strain RPMI-8402, B-cell-type acute lymphoblastic leukaemia cell strain CCRF-SB, chronic myelocytic leukaemia cell strain K562 and myeloblastoma cell strain ML-2 were prepared at concentrations of 2×10^4 or 4×10^4 cells per ml of culture medium. In each case, 0.05 ml quantities were added per well of a 96 well culture plate and culturing carried out at a carbon dioxide concentration of 5% for 24 hours at 37° C. Furthermore, 0.05 ml quantities of culture medium to which Compound 1 had been added were added to the aforesaid culture plate, and culturing carried out under the same conditions for 120 hours. The number of cells when the culturing was completed was calculated by the MTT calorimetric assay and the percentage suppression of tumour cell proliferation in terms of a control group to which no compound had been added was determined.
(§2) As well as Compound 1, there were used as test compounds 1-hydroxyethane-1,1-bisphosphonic acid disodium salt (Compound 6) and (4-chlorophenylthio)methane-1,1-bisphosphonic acid disodium salt (Compound 7). The results are shown in Table 2 as mean values±standard errors.
(§3) Using Dunett multiple comparison method (parametric), the results were assigned the symbol * when significant at a level of significance of p<0.05, and the symbol *** when significant at a level of significance of p<0.001, compared to the control group.

[3] = system: T-cell type acute lymphoblastic leukaemia cell strain RPMI-8402; test: Suppression of RPMI-8402 cell proliferation (MTT assay); format: cell-based; conditions: 120 hours culture, mean ± SE
Procedure: as §1, §2, §3

[4] = system: myeloblastoma cell strain ML-2; test: Suppression of ML-2 cell proliferation (MTT assay); format: cell-based; set-up: unit of the concentration uncertain; conditions: 120 hours culture, mean ± SE
Procedure: as §1, §2, §3

[5] = system: acute promyelocytic leukaemia cell strain KG-1; test: Suppression of KG-1 cell proliferation (MTT assay); format: cell-based; set-up: unit of the concentration uncertain; conditions: 120 hours culture, mean ± SE
Procedure: as §1, §2, §3

tumour cells = test: Suppression of leukaemia cell and myeloma cell proliferation (summary over all cell strains); format: cell-based; conditions: summary of Table 2
Procedure: as §1
As well as Compound 1, there were used as test compounds 1-hydroxyethane-1,1-bisphosphonic acid disodium salt (Compound 6) and (4-chlorophenylthio)methane-1,1-bisphosphonic acid disodium salt (Compound 7). The results are shown in Table 2 as mean values±standard errors. […]

[6] = system: B-cell-type acute lymphoblastic leukaemia cell strain CCRF-SB; test: Suppression of CCRF-SB cell proliferation (MTT assay); format: cell-based; set-up: unit of the concentration uncertain; conditions: 120 hours culture, mean ± SE
Procedure: as §1, §2, §3

Row | SMILES | osteomyelitis suppressing effect (in words) [1] | Percentage suppression of K562 cell proliferation ([2]; 1 (unit uncertain)) | Percentage suppression of K562 cell proliferation ([2]; 10 (unit uncertain)) [%] | Percentage suppression of K562 cell proliferation ([2]; 100 (unit uncertain)) [%] | Percentage suppression of RPMI8402 cell proliferation ([3]; 1 mM) | Percentage suppression of RPMI8402 cell proliferation ([3]; 10 mM) [%] | Percentage suppression of RPMI8402 cell proliferation ([3]; 100 mM) [%] | Percentage suppression of ML-2 cell proliferation ([4]; 1 (unit uncertain)) | Percentage suppression of ML-2 cell proliferation ([4]; 10 (unit uncertain)) [%] | Percentage suppression of ML-2 cell proliferation ([4]; 100 (unit uncertain)) | Percentage suppression of KG-1 cell proliferation ([5]; 1 (unit uncertain)) | Percentage suppression of KG-1 cell proliferation ([5]; 10 (unit uncertain)) [%] | Percentage suppression of KG-1 cell proliferation ([5]; 100 (unit uncertain)) [%] | proliferation of tumour cells (in words) (tumour cells) | Percentage suppression of CCRF-SB cell proliferation ([6]; 1 (unit uncertain)) | Percentage suppression of CCRF-SB cell proliferation ([6]; 10 (unit uncertain)) [%] | Percentage suppression of CCRF-SB cell proliferation ([6]; 100 (unit uncertain)) [%] | other results
1 | NCCCC(O)(P(=O)(O)O)P(=O)(O)O [Compound 2, 4-amino-1-hydroxybutane-1,1-bisphosphonic acid] | suppressed | – | – | – | – | – | – | – | – | – | – | – | – | – | – | – | – | Osteomyelitis score for the intertarsal and tarsometatarsal joints ([1]; 0.31 mg/kg, Table 1-2): 0.2 ± 0.17**; Osteomyelitis score for the talocrural joint region ([1]; 0.31 mg/kg, Table 1-2): 0.0 ± 0.0**
2 | O=P(O)(O)C(O)(Cc1cccnc1)P(=O)(O)O [Compound 3, 2-(3-pyridyl)-1-hydroxyethane-1,1-bisphosphonic acid] | suppressed | – | – | – | – | – | – | – | – | – | – | – | – | – | – | – | – | Osteomyelitis score for the intertarsal and tarsometatarsal joints ([1]; 0.31 mg/kg, Table 1-3): 0.0 ± 0.0**; Osteomyelitis score for the talocrural joint region ([1]; 0.31 mg/kg, Table 1-3): 0.0 ± 0.0**
3 | O=C(O)Cc1ccccc1Nc1c(Cl)cccc1Cl [Compound 4, Diclofenac, reference compound] | weak | – | – | – | – | – | – | – | – | – | – | – | – | – | – | – | – | Osteomyelitis score for the intertarsal and tarsometatarsal joints ([1]; 0.1 mg/kg, Table 1-4): 1.8 ± 0.2; Osteomyelitis score for the talocrural joint region ([1]; 0.1 mg/kg, Table 1-4): 1.2 ± 0.3
4 | COc1ccc2c(c1)c(CC(=O)O)c(C)n2C(=O)c1ccc(Cl)cc1 [Compound 5, Indomethacin, reference compound] | weak | – | – | – | – | – | – | – | – | – | – | – | – | – | – | – | – | Osteomyelitis score for the intertarsal and tarsometatarsal joints ([1]; 0.1 mg/kg, Table 1-5): 2.5 ± 0.2; Osteomyelitis score for the talocrural joint region ([1]; 0.1 mg/kg, Table 1-5): 1.8 ± 0.4
5 | CC(O)(P(=O)([O-])[O-])P(=O)(O)O.[Na+].[Na+] [Compound 6, 1-hydroxyethane-1,1-bisphosphonic acid disodium salt] | – | 44.4 ± 1.3*** % | −2.5 ± 0.3 | 3.2 ± 0.6 | 28.2 ± 2.0*** % | −3.4 ± 1.3 | 2.9 ± 1.5 | 147.2 ± 20.4*** % | −20.6 ± 17.2 | 16.0 ± 17.2% | 40.7 ± 1.7*** % | 1.6 ± 2.1 | 2.9 ± 2.4 | suppressed | 42.1 ± 0.9*** % | 2.2 ± 0.8 | 0.4 ± 1.2 | –
6 | O=P([O-])([O-])C(Sc1ccc(Cl)cc1)P(=O)(O)O.[Na+].[Na+] [Compound 7, (4-chlorophenylthio)methane-1,1-bisphosphonic acid disodium salt] | – | 97.8 ± 0.3*** % | −1.0 ± 1.3 | −3.1 ± 0.5 | 87.2 ± 0.6*** % | −2.5 ± 2.0 | 7.4 ± 6.3 | 130.4 ± 11.2*** % | 7.3 ± 7.3 | 42.8 ± 10.1* % | 97.1 ± 0.6*** % | −1.1 ± 1.1 | 2.2 ± 1.6 | suppressed | 61.3 ± 1.1*** % | 0.1 ± 1.9 | 3.5 ± 2.2 | –
